Experimental data: patent US8552063B2, “Composition for accelerated production of collagen” (E.S.L.I. Limited, priority 2008, dated 2013)

Test system: human dermal fibroblasts
Experiment: Collagen I secretion, CODTA combined with SDA (Example 3)
Assay type: cell-based
Settings: in combination with Stearidonic Acid base; relative to diluent (vehicle) alone
Experimental: This example provides outline results of the effect of two test active ingredient mixes on collagen I secretion by human dermal fibroblasts. Human dermal fibroblasts (originally derived from explant cultures of normal human breast dermis) were cultured under standard conditions. Two test combinations of actives (CODTA's when combined with SDA) were initially screened for cytotoxicity before testing.
Collagen I levels were determined and are expressed as a percentage of the levels observed in samples from cultures treated with diluent (vehicle) alone.
Pepsin digests of both cell culture medium, and the cell culture surface (plate) from each treated culture well were analysed.

Structure (SMILES) | Percentage increase in collagen I secretion [%]
CCCCC\C=C/C=C/C=C/CCCCCCC(=O)O [Calendic Acid, Calendic acid] | 187
CCCCC\C=C/C=C/C=C\CCCCCCC(=O)O [Jacaric Acid, Jacaric acid] | 278
